pIC50: −log10 of the molar value. Read-outs that look alike come from different tables or passages of the source.
Tests used:
choline transporter = target: T1, choline transporter (Homo sapiens, UniProt Q9GZV3); experiment: biochemical
T1 sequence (Q9GZV3 1-580): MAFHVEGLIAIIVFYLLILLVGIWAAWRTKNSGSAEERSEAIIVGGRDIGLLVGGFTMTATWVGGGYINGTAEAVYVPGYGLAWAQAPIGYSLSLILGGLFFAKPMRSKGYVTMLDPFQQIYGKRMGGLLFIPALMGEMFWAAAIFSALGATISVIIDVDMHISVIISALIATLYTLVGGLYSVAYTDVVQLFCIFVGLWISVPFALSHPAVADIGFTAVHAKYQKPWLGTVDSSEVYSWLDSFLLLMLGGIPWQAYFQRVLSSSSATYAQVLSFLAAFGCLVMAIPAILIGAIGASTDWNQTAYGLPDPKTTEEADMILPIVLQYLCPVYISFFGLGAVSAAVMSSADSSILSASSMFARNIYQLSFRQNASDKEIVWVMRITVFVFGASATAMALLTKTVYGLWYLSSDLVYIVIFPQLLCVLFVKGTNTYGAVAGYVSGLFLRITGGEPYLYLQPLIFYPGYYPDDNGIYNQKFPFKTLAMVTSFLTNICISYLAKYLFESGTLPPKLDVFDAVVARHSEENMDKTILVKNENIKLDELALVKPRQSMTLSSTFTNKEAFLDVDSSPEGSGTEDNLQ

D1 = D1 (Homo sapiens, UniProt P21728); experiment: biochemical
CYP3A4 = CYP3A4 (Homo sapiens, UniProt P08684); experiment: CYP3A4 inhibition, method not given; format: biochemical
[1] = read-out: XEN602 % inhibition at 1 µM
[2] = read-out: XEN601 % inhibition at 1 µM

Sequence of D1 (P21728 whole entry): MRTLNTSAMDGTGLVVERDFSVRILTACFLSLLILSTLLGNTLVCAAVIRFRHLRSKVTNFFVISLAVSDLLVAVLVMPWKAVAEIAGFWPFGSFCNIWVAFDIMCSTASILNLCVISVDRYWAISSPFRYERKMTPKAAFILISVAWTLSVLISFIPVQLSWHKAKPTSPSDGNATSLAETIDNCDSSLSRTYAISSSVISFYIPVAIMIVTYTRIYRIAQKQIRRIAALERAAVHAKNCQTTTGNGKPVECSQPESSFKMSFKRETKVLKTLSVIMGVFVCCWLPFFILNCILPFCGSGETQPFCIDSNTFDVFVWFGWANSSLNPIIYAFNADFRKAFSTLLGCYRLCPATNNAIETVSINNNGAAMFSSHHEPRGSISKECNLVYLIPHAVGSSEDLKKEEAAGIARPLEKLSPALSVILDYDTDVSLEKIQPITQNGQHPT
Sequence of CYP3A4 (P08684 2-503): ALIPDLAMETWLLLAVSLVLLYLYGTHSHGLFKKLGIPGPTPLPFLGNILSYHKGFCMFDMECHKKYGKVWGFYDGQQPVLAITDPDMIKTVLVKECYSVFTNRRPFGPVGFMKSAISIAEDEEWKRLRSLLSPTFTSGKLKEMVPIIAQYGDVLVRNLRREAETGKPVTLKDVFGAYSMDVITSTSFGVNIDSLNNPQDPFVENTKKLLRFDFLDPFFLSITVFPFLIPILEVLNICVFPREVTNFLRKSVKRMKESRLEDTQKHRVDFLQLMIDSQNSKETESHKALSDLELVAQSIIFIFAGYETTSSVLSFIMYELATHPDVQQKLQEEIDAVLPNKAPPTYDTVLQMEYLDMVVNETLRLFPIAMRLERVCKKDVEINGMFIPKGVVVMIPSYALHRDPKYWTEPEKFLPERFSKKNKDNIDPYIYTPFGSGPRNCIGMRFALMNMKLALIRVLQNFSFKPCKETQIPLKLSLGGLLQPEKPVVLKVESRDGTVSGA

Row | SMILES | inhibition at 1 µM (choline transporter; [1]) | inhibition at 1 µM (D1; [1]) | pIC50 (CYP3A4) | inhibition at 1 µM (choline transporter; [2]) | inhibition at 1 µM (D1; [2])
1 | N=C(N)SCc1cc(F)ccc1Oc1ccc(-c2ccc(Oc3ccc(CCCN4CCNCC4)cc3CSC(=N)N)c(CSC(=N)N)c2)cc1CSC(=N)N [compound 6, XEN602] | 52% | 59% | – | – | –
2 | N=C(N)SCc1ccccc1Oc1ccc(-c2ccc(Oc3ccccc3CSC(=N)N)c(CSC(=N)N)c2)cc1CSC(=N)N [compound 5, XEN601] | – | – | > 6.00 | 62% | 69%

Source: publication doi:10.1101/2022.09.01.506269v1 (biorxiv, 2022)
